Key:
[1] = test system: human multiple myeloma NCI-H929 xenograft tumors; experiment: In vivo activity of combination therapy with bortezomib or tazemetostat against NCI-H929 transplanted tumor; parameters: species or system NOD/SCID mice; details: I-8 3 mg/kg QD; for Average volume (mm^3) (Day 10) / Tumor inhibition rate TGI (%) / Initial volume (mm^3): Bort 1 mg/kg BIW, Taze 100 mg/kg QD, combinations given as + Bort 3 mg/kg BIW / + Taze 3 mg/kg QD; for Initial volume (mm^3): baseline
Protocol: In this example, the human multiple myeloma NCI-H929 cell line was selected as the cell model to determine the inhibitory effects of compounds, bortezomib (Bort), and tazemetostat (Taze), as single drugs and in combination, on the growth of NOD/SCID mouse transplanted tumors of NCI-H929 tumor cells. The evaluation methods and results are described below.
(§1) Human multiple myeloma NCI-H929 cells were routinely cultured in RPMI1640 containing 10% fetal bovine serum at 37°C in a 5% CO2 incubator. After three passages in vitro, when the cells reached over 80% confluence and the required confluence rate, the cells were digested and harvested. After washing with PBS, the cells were counted and the cell concentration was adjusted to approximately 5 × 10^7 cells/mL. The cells were then placed in 4 mL centrifuge tubes on ice for later use.
(§2) Female NOD/SCID mice aged 4-5 weeks were selected and subcutaneously inoculated with NCI-H929 cells ectopically. The mice were held in a lateral position, the forelimb axilla was disinfected with 75% alcohol, and 100 µL of the cell suspension was injected subcutaneously into the axilla using a 1 mL syringe ([…]/100 µL).
After the tumors grew to 90-150 mm^3, the animals were randomly divided into groups, 8 mice in each group, and administered according to different administration methods as follows: • Model control group: Administered with the same volume of Vehicle (DMSO: 0.5% sodium carboxymethyl cellulose: distilled water = 1:1:8) daily by gavage; • Test group 1: administered with I-8 solution at 3 mg/kg (mouse body weight) daily by gavage; • Test group 2: administered with bortezomib (Bort) solution at 1 mg/kg (mouse body weight) twice weekly by gavage; • Test group 3: administered with tazemetostat solution at 100 mg/kg (mouse body weight) daily by gavage; • Test group 4: administered with I-8 at 3 mg/kg (mouse body weight) daily by gavage and bortezomib (Bort) solution at 1 mg/kg (mouse body weight) twice weekly by gavage; • Test group 5: administered with I-8 at 3 mg/kg (mouse body weight) daily by gavage and tazemetostat (Taze) solution at 100 mg/kg (mouse body weight) daily by gavage;
(§3) The route of administration was oral gavage, and the administration frequency was once daily, for 10 consecutive days. The first day of administration was defined as Day 1 of the experiment. Tumor volume changes in mice were measured and recorded every two days. Tumor volume was measured using a vernier caliper, in which the major axis (a) and minor axis (b) of the tumor were measured, and the tumor volume was calculated as tumor volume V (mm^3) = a x b^2/2. After the experiment, the mice were dissected and the tumor weight was measured. The data were entered and statistically analyzed using GraphPad Prism 6 software. The data are expressed as mean ± SEM (Standard Error of Mean), and one-way ANOVA was used. P ≤ 0.05 was considered statistically significant.

[2] = test system: human multiple myeloma NCI-H929 xenograft tumors; experiment: In vivo antitumor activity against NCI-H929 transplanted tumors; parameters: species or system NOD/SCID mice; details: QD; for Tumor inhibition rate TGI (%) / Average volume (mm^3) (Day 10) / Initial volume (mm^3): oral gavage; for Tumor inhibition rate TGI (%): 10 consecutive days; for Initial volume (mm^3): baseline
Protocol: In this example, the human multiple myeloma NCI-H929 cell line was used as the cell model. The inhibitory effects of compounds on the growth of NOD/SCID mouse transplanted tumors of NCI-H929 tumor cells were determined. The evaluation methods and results are described below.
as §1, §2
After the tumors grew to 90-150 mm^3, the animals were randomly divided into groups, 8 mice in each group, and administered according to different administration methods as follows: • Model control group: Administered with the same volume of Vehicle (DMSO: 0.5% sodium carboxymethyl cellulose: distilled water = 1:1:8) daily by gavage; • Control drug group 1: administered with pomalidomide solution at 10 mg/kg (mouse body weight) daily by gavage; • Control drug group 2: administered with CC-220 solution at 3 mg/kg (mouse body weight) daily by gavage; • Control drug group 3: administered with CC-220 solution at 10 mg/kg (mouse body weight) daily by gavage; • Experimental compound group 4: administered with compound I-4 solution at 3 mg/kg (mouse body weight) daily by gavage; • Experimental compound group 5: administered with compound I-4 solution at 10 mg/kg (mouse body weight) daily by gavage; • Experimental compound group 6: administered with compound I-8 solution at 3 mg/kg (mouse body weight) daily by gavage; • Experimental compound group 7: administered with compound I-8 solution at 10 mg/kg (mouse body weight) daily by gavage;
as §3

[3] = test system: human multiple myeloma NCI-H929 xenograft tumors; experiment: In vivo activity in combination with dexamethasone against NCI-H929 transplanted tumor; parameters: species or system NOD/SCID mice; details: each drug 3 mg/kg, QD, oral gavage, alone or combined
Protocol: In this example, human multiple myeloma NCI-H929 cell line was selected as the cell model to determine the inhibitory effects of compound and dexamethasone alone, as well as combination thereof on the growth of NOD/SCID mouse transplanted tumors of NCI-H929 tumor cells. The evaluation methods and results are described below.
as §1, §2
After the tumors grew to 90-150 mm^3, the animals were randomly divided into groups, 8 mice in each group, and administered according to different administration methods as follows: • Model control group: Administered with the same volume of Vehicle (DMSO: 0.5% sodium carboxymethyl cellulose: distilled water = 1:1:8) daily by gavage; • Test group 1: administered with dexamethasone (Dex) solution at 3 mg/kg (mouse body weight) daily by gavage; • Test group 2: administered with I-4 solution at 3 mg/kg (mouse body weight) daily by gavage; • Test group 3: administered with I-8 solution at 3 mg/kg (mouse body weight) daily by gavage; • Test group 4: administered with dexamethasone at 3 mg/kg (mouse body weight) and 1-4 solution at 3 mg/kg (mouse body weight) daily by gavage; • Test group 5: administered with dexamethasone at 3 mg/kg (mouse body weight) and I-8 solution at 3 mg/kg (mouse body weight) daily by gavage;
as §3

[4] = test system: U937 cells; experiment: Antiproliferative activity, CCK-8 assay; format: cell-based; details: Homo sapiens, U-937; 144 hours incubation, CCK-8, absorbance at 450 nm
Protocol: (§4) The cell models used in this example were human hematologic tumor cells, including NCI-H929, RPMI-8226, MV-4-11, U937 and WSU-DLCL-2. Some of the compounds of the present invention were selected to determine their inhibitory activity against the proliferation of NCI-H929, RPMI-8226, MV-4-11, U937, and WSU-DLCL-2 cells.
(§5) • ① The selected compounds were dissolved in DMSO to prepare 10 mM stock solutions. Compounds used within three months should be stored at room temperature in a desiccator; others could be stored at -20°C for long-term storage. • ② The above stock solutions and the positive reference compound pomalidomide were diluted with DMSO. Their initial concentrations were 10 µM. In the experiments of NCI-H929 and RPMI-8226 cells, 3-fold serial dilution with 11 concentration points was performed, with the lowest concentration of 0.00047 µM. The resulting solutions were shaken on a shaker for 5 minutes.
(§6) • ① The NCI-H929, RPMI-8226, MV-4-11, U937, and WSU-DLCL-2 cells in logarithmic growth phase were inoculated in a 96-well plate, 20,000 to 30,000 cells per well, and the plate was pre-cultured for 24 hours in an incubator (at 37°C and 5% CO2). • ② The culture medium in the plate was replaced, and the compounds and the positive control with corresponding concentrations were added to the plated at a volume of 50 µl. • ③ The plate was incubated for 144 hours in an incubator, then 15 µl of CCK-8 solution was added to each well, and incubated in the incubator for another 1-4 hours. • ④ The absorbance at 450 nm was measured using a microplate reader.
(§7) • ① Calculating % Inhibition: [formula] • ② Calculating IC50 value of compound and plotting dose-response curve: The IC50 value was calculated by fitting the % Inhibition and the logarithm of compound concentration to a nonlinear regression (dose response-variable slope) by using GraphPad 6.0. • Y = Bottom + (Top - Bottom) / (1 + 10^((LogIC50 - X) * HillSlope)) • X: log of inhibitor concentration; Y: % Inhibition.
(§8) After calculating % Inhibition, a dose-response curve was plotted with the logarithm of the test compound concentration as the x-axis and the average cell viability as the y-axis, and the IC50 value was obtained by fitting.

[5] = test system: MV-4-11 cells; experiment: Antiproliferative activity, CCK-8 assay; format: cell-based; details: Homo sapiens, MV4-11; 144 hours incubation, CCK-8, absorbance at 450 nm
Protocol: as §4, §5, §6, §7, §8

[6] = test system: WSU-DLCL-2 cells; experiment: Antiproliferative activity, CCK-8 assay; format: cell-based; details: Homo sapiens, WSUDLCL2; 144 hours incubation, CCK-8, absorbance at 450 nm
Protocol: as §4, §5, §6, §7, §8

[7] = test system: RPMI-8226 cells; experiment: Antiproliferative activity, CCK-8 assay; format: cell-based; details: Homo sapiens, 144 hours incubation, CCK-8, absorbance at 450 nm
Protocol: as §4, §5, §6, §7, §8

[8] = test system: NCI-H929 cells; experiment: Antiproliferative activity, CCK-8 assay; format: cell-based; details: Homo sapiens, 144 hours incubation, CCK-8, absorbance at 450 nm, read-out: IC50 (µM) H-929
Protocol: as §4, §5, §6, §7, §8

Row | IC50 [4] [µM] | IC50 [5] [µM] | IC50 [7] [µM] | IC50 [8] [µM] | Structure (SMILES) | IC50 [6] [µM] | other results
1 | – | – | – | – | CC(C)C[C@H](NC(=O)[C@H](Cc1ccccc1)NC(=O)c1cnccn1)B(O)O [Bort, bortezomib] | – | Average volume (mm^3) (Day 10) [1]: 1249.7 mm^3; Tumor inhibition rate TGI (%) [1]: 30.78%; growth of NCI-H929 transplanted tumors (in words) ([1]; bortezomib 1 mg/kg BIW, tazemetostat 100 mg/kg QD, alone or combined): weaker tumor-inhibiting abilities; Initial volume (mm^3) [1]: 100.6 mm^3
2 | – | – | – | – | O=C1CC[C@H](N2Cc3c(OCc4ccc(CN5CCOCC5)cc4)cccc3C2=O)C(=O)N1 [CC-220, reference compound] | – | Tumor inhibition rate TGI (%) ([2]; 3 mg/kg): 77.98%; Average volume (mm^3) (Day 10) ([2]; 3 mg/kg): 643.1 mm^3; Initial volume (mm^3) ([2]; 3 mg/kg): 214.6 mm^3; Tumor inhibition rate TGI (%) ([2]; 10 mg/kg): 100.09%; Average volume (mm^3) (Day 10) ([2]; 10 mg/kg): 205.5 mm^3; Initial volume (mm^3) ([2]; 10 mg/kg): 207.2 mm^3; body weight ([2]; 10 mg/kg, during the experiment, Figure 2B): decreasing trend in body weight
3 | – | – | – | – | C[C@@H]1C[C@H]2[C@@H]3CCC4=CC(=O)C=C[C@]4(C)[C@@]3(F)[C@@H](O)C[C@]2(C)[C@@]1(O)C(=O)CO [Dex, dexamethasone, reference compound] | – | Tumor inhibition rate TGI (%) ([3]; 10 consecutive days): 45.48%; Average volume (mm^3) (Day 10) ([3]; Day 10): 1048.6 mm^3; Initial volume (mm^3) ([3]; baseline): 185.7 mm^3
4 | 1.32 | 3.43 | – | – | CN1Cc2c(NCc3ccc(CN4CCOCC4)cc3)cccc2C(=O)N1C1CCC(=O)NC1=O (centres unmarked) [I-1, 3-(3-methyl-5-((4-(morpholinomethyl)benzyl)amino)-1-oxo-3,4-dihydrophthalazin-2(1H)-yl)piperidin-2,6-dione] | 0.358 | –
5 | 1.33 | > 10 | 8.31 | 0.311 | CNc1cccc2c1CN(C)N(C1CCC(=O)NC1=O)C2=O (centres unmarked) [I-2, 3-(3-methyl-5-(methylamino)-1-oxo-3,4-dihydrophthalazin-2(1H)-yl)piperidin-2,6-dione] | 1.06 | –
6 | 1.11 | 1.39 | – | 1.3 | CN1Cc2c(NCc3ccc(CN4CCN(c5ccccc5)CC4)cc3)cccc2C(=O)N1C1CCC(=O)NC1=O (centres unmarked) [I-3, 3-(3-methyl-1-oxo-5-((4-((4-phenylpiperazin-1-yl)methyl)benzyl)amino)-3,4-dihydrophthalazin-2(1H)-yl)piperidin-2,6-dione] | 0.279 | –
7 | 0.666 | 0.174 | 0.641 | 0.243 | CN1Cc2c(NCc3ccc(CN4CCN(C(=O)OC(C)(C)C)CC4)cc3)cccc2C(=O)N1C1CCC(=O)NC1=O (centres unmarked) [I-5, tert-butyl 4-(4-(((2-(2,6-dioxopiperidin-3-yl)-3-methyl-1-oxo-1,2,3,4-tetrahydrophthalazin-5-yl)amino)methyl)benzyl)piperazin-1-carboxylate] | 0.108 | –
8 | 0.0522 | 0.0311 | 1.26 | 0.032 | CN1Cc2c(NCc3ccc(CN4CCN(c5ccc(F)cc5)CC4)cc3)cccc2C(=O)N1C1CCC(=O)NC1=O (centres unmarked) [I-6] | 0.048 | –
9 | 0.0348 | 0.0155 | 0.442 | 0.028 | CN1Cc2c(NCc3ccc(CN4CCN(c5ccc(C#N)cc5)CC4)cc3)cccc2C(=O)N1C1CCC(=O)NC1=O (centres unmarked) [I-7] | 0.053 | –
10 | – | – | – | – | CCN(c1cc(-c2ccc(CN3CCOCC3)cc2)cc(C(=O)NCc2c(C)cc(C)[nH]c2=O)c1C)C1CCOCC1 [Taze, tazemetostat] | – | Average volume (mm^3) (Day 10) [1]: 1558.0 mm^3; Tumor inhibition rate TGI (%) [1]: 12.83%; Initial volume (mm^3) [1]: 110.8 mm^3
